Reference: patent publication EP0943339A2, “Method of preventing allograft rejection” (priority 1998, dated 1999)

Test system: acute allograft rejection
Test: murine cardiac ear pinna model of acute allograft rejection (non-vascularized cardiac tissue transplantation)
Format: in vivo
Details: for Graft Survival Mean ± Std Dev: monotherapy, day 0 to 17
Source text: In Vivo Murine Cardiac Ear Pinnae Model of Transplatation
• Methods: A rapid, facile 2-week murine bioassay of non-vascularized cardiac tissue transplantation,t he murine cardiac ear pinna model of acute allograft rejection, was used to evaluate the dose-response relationship of immunosuppressive drugs on allograft rejection. In this model, donor BALB/C (N2^d) neonatal hearts are transplanted into recipient C3H/HeN (H2^k) ear pinna pouches without vacular anastomoses. […] All compounds are given on day 0 to 17 COMPOUND P [(+)-2-[3,4-dihydro(3S,4R)-4-hydroxy-3-(4-phenyl-phenylmethyl)-7-(2H, 1-benzopyran)]cyclopentane carboxylic acid] was given orally in 0.5% Methylcellulose. […] Grafts were assessed by visual examination for contraction on alternate days (from 6 to 18) and graft survival was defined as the post-transplant day on which contractions cease. Efficacy data from day 6 to 18 is presented as mean survival days (±SD) and was analyzed by Log Rank Analysis. Graft survival values were deterined at day 18. […] The studies were performed at Stanford Medical Ceter in a collaborative grant with Randall Morris, MD. […]

## C=CC[C@@H]1/C=C(\C)C[C@H](C)C[C@H](OC)[C@H]2O[C@@](O)(C(=O)C(=O)N3CCCC[C@H]3C(=O)O[C@H](/C(C)=C/[C@@H]3CC[C@@H](O)[C@H](OC)C3)[C@H](C)[C@@H](O)CC1=O)[C@H](C)C[C@@H]2OC (relative stereo) [FK506, [3S-[3R*[E(1S*,3S*,4S*)], 4S*, 5R*, 8S*, 9E, 12R*, 14R*, 15S*, 16R*, 18S*, 19S*, 26aR*]]-5,6,8,11,12,13,14,15,16,17,18,19,24,25,26,26a-Hexadeachydro-5,19-dihydroxy-3-[2-(4-hydroxy-3-[2-(4-hydroxy-3-methoxycyclohexyl)-1-methyl-ethenyl]-14,16-dimethoxy-4,10,12,18-tetramethyl-8-(2-propenyl)-15,19-epoxy-3H-pyrido[2,1-c][1,4]oxaazacyclotricosine-1,7,20,21(4H,23H)-tetrone]
FK506 0.2 mg/kg/d intraperitoneal, survival assessed to day 18
  Graft Survival Mean ± Std Dev: 11.6 ± 1.3 days
FK506 0.4 mg/kg/d intraperitoneal, survival assessed to day 18
  Graft Survival Mean ± Std Dev: 12.4 ± 0.9 days
FK506 0.6 mg/kg/d intraperitoneal, grafts surviving at day 18 censored
  Graft Survival Mean ± Std Dev: >16.9 ± 1.8 days
FK506 0.8 mg/kg/d intraperitoneal, grafts surviving at day 18 censored
  Graft Survival Mean ± Std Dev: >17.8 ± 0.6 days

## O=C(O)C1CCCC1c1ccc2c(c1)OC[C@H](Cc1ccc(-c3ccccc3)cc1)[C@H]2O (single isomer, unassigned; (+)) [COMPOUND P]
Highest dose, 300 mg/kg/d
  efficacy as a single agent in acute rejection: significant (p<0.01)
COMPOUND P 30 mg/kg/d orally, survival assessed to day 18
  Graft Survival Mean ± Std Dev: 11.0 ± 1.1 days
COMPOUND P 100 mg/kg/d orally, survival assessed to day 18
  Graft Survival Mean ± Std Dev: 10.3 ± 0.7 days
COMPOUND P 200 mg/kg/d orally, survival assessed to day 18
  Graft Survival Mean ± Std Dev: 10.3 ± 0.7 days
COMPOUND P 300 mg/kg/d orally, survival assessed to day 18
  Graft Survival Mean ± Std Dev: 11.8 ± 1.1 days

## COc1c(C)c2c(c(O)c1C/C=C(\C)CCC(=O)O)C(=O)OC2 [MPA]
MPA 100 mg/kg/d, survival assessed to day 18
  Graft Survival Mean ± Std Dev: 13.6 ± 1.9 days
MPA 150 mg/kg/d, survival assessed to day 18
  Graft Survival Mean ± Std Dev: 16.6 ± 1.9 days
